Measured values reported in patent US20250034171A1, “IMIDAZOPYRIDINE AMIDES AND RELATED COMPOUNDS FOR USE IN THE TREATMENT OF BACTERIAL INFECTIONS” (priority 2021, published 2025).
≈ marks a conversion by molar mass, not a printed value. Read-outs that look alike come from different tables or passages of the source.

Tests used:
[1] = system: Mycobacterium tuberculosis strain H37Rv; assay: Test 2: MIC determination against M. tuberculosis, resazurin fluorescence; format: cell-based; settings: Test 2, M. tuberculosis H37Rv; for MIC90: read-out: Bacterial activity MIC90; for IC50: read-out: Bacterial activity pMIC50 (converted)
[2] = Metabolic stability in liver microsomes (intrinsic clearance); format: in vitro ADME; settings: microsomes
Protocol: The test compound was incubated under the generic condition (0.5 mg/ml microsomal protein, 1 mM NADPH, 1 mM MgCl2, and 0.1 M phosphate buffer, pH 7.4, 37° C.) at a defined substrate concentration (typically 1 μM) in liver microsomes of selected species across a time course (typically 0, 5, 10, 20, 40 and 60 minutes) at Cyprotex (Cheshire, UK). The liver microsomes, buffer and test compound will be pre-incubated for 5 minutes. The addition of the co-factor NADPH will initiate the reaction and the reaction was terminated by addition of acetonitrile. The samples were centrifuged prior to analysis by LC-MS/MS analysis. The relative amount of parent compound remaining in the active incubations vs. the control incubations (t=0 mins) for each compound was measured by peak area comparison. The in vitro metabolic half-life (t1/2) was calculated using the slope of the log-linear regression from the percentage parent compound remaining versus time relationship (κ), The in vitro intrinsic clearance (Cl^int) (μl/min/mg microsomal protein) was calculated using the in vitro metabolic half-life, incubation volume and the weight of microsomal protein in the incubation.

[3] = Mycobacterium tuberculosis, H37RV
[4] = mouse, pH 7.4, Metabolic Stability Half life (mouse, min.)
[5] = mouse, pH 7.4, mouse liver microsomes, read-out: Metabolic Stability (liver microsome intrinsic clearance) Clearance (mouse, μl/min./mg protein)

Row | SMILES | MIC90 [1, 3] [µM] | IC50 [1, 3] [pM] | other results
1 | CCc1nc2ncc(C)cn2c1C(=O)NCc1ccc(-c2nc3n(n2)CCC(C(F)(F)F)C3)cc1 (single isomer, unassigned) [Compound 1b] | – | – | Bacterial activity pMIC50 [1]: 8.576; MIC90 [1]: 0.007 µM (≈ 0.00338 µg/mL); Metabolic Stability (liver microsome intrinsic clearance) Clearance (human, μl/min./mg protein) ([2]; human): 7.81 μl/min./mg protein; Metabolic Stability Half life (human, min.) ([2]; human): 2.97 h; Metabolic Stability (liver microsome intrinsic clearance) Clearance (mouse, μl/min./mg protein) ([2]; mouse): 7.8 μl/min./mg protein; Metabolic Stability Half life (mouse, min.) ([2]; mouse): 2.97 h
2 | CCc1nc2ncccn2c1C(=O)NCc1ccc(-c2nc3n(n2)CC[C@@H](C(F)(F)F)C3)c(F)c1 (single isomer, unassigned) [Compound 73] | – | – | Bacterial activity pMIC50 [1]: 7.18; MIC90 [1]: 0.35 µM (≈ 0.171 µg/mL); Metabolic Stability (liver microsome intrinsic clearance) Clearance (mouse, μl/min./mg protein) ([2]; mouse): <7.7 μl/min./mg protein; Metabolic Stability Half life (mouse, min.) ([2]; mouse): >3 h
3 | CCc1nc2ncccn2c1C(=O)NCc1ccc(-c2nc3n(n2)CC[C@H](C(F)(F)F)C3)c(F)c1 (single isomer, unassigned) [Compound 74] | – | – | Bacterial activity pMIC50 [1]: 6.94; MIC90 [1]: >0.5 µM; Metabolic Stability (liver microsome intrinsic clearance) Clearance (mouse, μl/min./mg protein) ([2]; mouse): <7.7 μl/min./mg protein; Metabolic Stability Half life (mouse, min.) ([2]; mouse): >3 h
4 | CCc1nc2n(c1C(=O)NCc1ccc(-c3nc4n(n3)CC[C@H](C(F)(F)F)C4)c(F)c1)CCCC2 (single isomer, unassigned) [Compound 77] | – | – | Bacterial activity pMIC50 [1]: 7.6; MIC90 [1]: 0.098 µM (≈ 0.0481 µg/mL); Metabolic Stability (liver microsome intrinsic clearance) Clearance (mouse, μl/min./mg protein) ([2]; mouse): 26.1 μl/min./mg protein; Metabolic Stability Half life (mouse, min.) ([2]; mouse): 0.885 h
5 | CCc1nc2ncc(C)cn2c1C(=O)NCc1ccc(-c2cn3c(n2)CC(C(F)(F)F)CC3)cc1 (centres unmarked) [Compound 3ab] | 0.009 (≈ 0.00434 µg/mL) | 3550 | half-life at 1 µM ([2]; human, pH 7.4, Metabolic Stability Half life (human, min.)): 1.54 h; microsomal CLint at 1 µM ([2]; human, pH 7.4, human liver microsomes, read-out: Metabolic Stability (liver microsome intrinsic clearance) Clearance (human, μl/min./mg protein)): 15 µL/min/mg; half-life at 1 µM [2, 4]: 1.7 h; microsomal CLint at 1 µM [2, 5]: 13.6 µL/min/mg
6 | CCc1nc2ncc(OC)cn2c1C(=O)NCc1ccc(-c2nc3n(n2)CC[C@H](C(F)(F)F)C3)cc1 [Compound 49] | 0.023 (≈ 0.0115 µg/mL) | 7760 | half-life at 1 µM [2, 4]: 1.8 h; microsomal CLint at 1 µM [2, 5]: 12.9 µL/min/mg
7 | O=C(NCc1ccc(-c2nc3n(n2)CC[C@@H](C(F)(F)F)C3)cc1)c1c(C(F)F)nc2n1CCCC2 [Compound 80] | 0.2 (≈ 0.0989 µg/mL) | 56200 | half-life at 1 µM [2, 4]: 1.42 h; microsomal CLint at 1 µM [2, 5]: 16.3 µL/min/mg
8 | CCc1nc2n(c1C(=O)NCc1ccc(-c3cn4c(n3)C[C@H](C(F)(F)F)CC4)cc1)CCCC2 [Compound 164] | 0.058 (≈ 0.0273 µg/mL) | 17000 | –
9 | CCc1nc2ccccn2c1C(=O)NCc1ccc(-c2cn3c(n2)C[C@H](C(F)(F)F)CC3)cc1 [Compound 165] | 0.055 (≈ 0.0257 µg/mL) | 16200 | –
10 | CCc1nc2ncccn2c1C(=O)NCc1ccc(-c2cn3c(n2)C[C@@H](C(F)(F)F)CC3)cc1 [Compound 166] | > 0.5 | 145000 | –
11 | CCc1nc2n(c1C(=O)NCc1ccc(-c3nc4n(n3)CC[C@@H](C(F)(F)F)C4)cc1)C[C@@H](OC)CC2 [Compound 167] | 0.45 (≈ 0.226 µg/mL) | 132000 | –
12 | CCc1nc2n(c1C(=O)NCc1ccc(-c3nc4n(n3)CC[C@H](C(F)(F)F)C4)cc1)C[C@@H](OC)CC2 [Compound 168] | 0.5 (≈ 0.251 µg/mL) | 174000 | –
13 | O=C(NCc1ccc(-c2nc3n(n2)CC[C@H](C(F)(F)F)C3)cc1)c1c(C(F)(F)F)nc2ncccn12 [Compound 170] | > 0.45 | > 275000 | –
14 | CCc1nc2ncccn2c1C(=O)NCc1ccc(-c2nc3n(n2)CC[C@@H](C(F)(F)F)C3)cc1 [Compound 171] | 0.18 (≈ 0.0845 µg/mL) | 46800 | –
15 | CCc1nc2ncc(C(F)(F)F)cn2c1C(=O)NCc1ccc(-c2nc3n(n2)CC[C@@H](C(F)(F)F)C3)cc1 [Compound 172] | > 0.46 | > 295000 | –
16 | CCc1nc2ncc(C(F)(F)F)cn2c1C(=O)NCc1ccc(-c2nc3n(n2)CC[C@H](C(F)(F)F)C3)cc1 [Compound 173] | – | – | Bacterial activity pMIC50 [1]: <6.49; MIC90 [1]: >0.47 µM
17 | O=C(NCc1ccc(-c2nc3n(n2)CC[C@H](C(F)(F)F)C3)cc1)c1c(C(F)F)nc2n1CCCC2 [Compound 174] | 0.25 (≈ 0.124 µg/mL) | 67600 | half-life at 1 µM [2, 4]: 1.34 h; microsomal CLint at 1 µM [2, 5]: 17.3 µL/min/mg

Row | SMILES | MIC90 [1, 3] [µM] | IC50 [1, 3] [pM] | other results
18 | CCc1nc2ncc(Cl)cn2c1C(=O)NCc1ccc(-c2cn3c(n2)C[C@H](C(F)(F)F)CC3)cc1 [Compound 175] | 0.059 (≈ 0.0297 µg/mL) | 21900 | –
19 | CCc1nc2ncc(Cl)cn2c1C(=O)NCc1ccc(-c2cn3c(n2)C[C@@H](C(F)(F)F)CC3)cc1 [Compound 176] | 0.039 (≈ 0.0196 µg/mL) | 12600 | –
20 | CCc1nc2ncccn2c1C(=O)NCc1ccc(-c2cc3n(n2)CCC(C(F)(F)F)C3)cc1 (centres unmarked) [Compound 180] | 0.12 (≈ 0.0562 µg/mL) | 20000 | half-life at 1 µM [2, 4]: 2.35 h; microsomal CLint at 1 µM [2, 5]: 9.9 µL/min/mg
21 | CCc1nc2ncccn2c1C(=O)NCc1ccc(-c2nc3n(n2)C[C@@H](C(F)(F)F)CC3)cc1 [Compound 181] | 0.22 (≈ 0.103 µg/mL) | 57500 | –
22 | CCc1nc2ncccn2c1C(=O)NCc1ccc(-c2nc3n(n2)C[C@H](C(F)(F)F)CC3)cc1 [Compound 182] | 0.2 (≈ 0.0939 µg/mL) | 52500 | –
23 | CCc1nc2n(c1C(=O)NCc1ccc(-c3cn4c(n3)CC(C(F)(F)F)CC4)c(F)c1)CCCC2 (centres unmarked) [Compound 185] | 0.034 (≈ 0.0166 µg/mL) | 9770 | –
24 | CCc1nc2ncccn2c1C(=O)NCc1ccc(-c2cn3c(n2)CC(C(F)(F)F)CC3)c(F)c1 (centres unmarked) [Compound 186] | 0.19 (≈ 0.0924 µg/mL) | 40700 | half-life at 1 µM [2, 4]: > 3 h; microsomal CLint at 1 µM [2, 5]: < 7.7 µL/min/mg
25 | CCc1nc2ncccn2c1C(=O)NCc1ccc(-c2cc3n(n2)CCCC3)cc1 [Compound 187] | > 0.5 | 151000 | –
26 | CCc1nc2n(c1C(=O)NCc1ccc(-c3nc4n(n3)CC(C(F)(F)F)CC4)cc1)CCCC2 (centres unmarked) [Compound 188] | 0.23 (≈ 0.109 µg/mL) | 22900 | –
27 | CCc1nc2ncccn2c1C(=O)NCc1ccc(-c2nc3n(n2)CCC(C(C)(F)F)C3)cc1 (centres unmarked) [Compound 189] | 0.33 (≈ 0.154 µg/mL) | 87100 | –
28 | CCc1nc2ncccn2c1C(=O)NCc1ccc(-c2nc3n(n2)CC[C@H](C(F)(F)F)C3)cc1 [Compound 190] | 0.19 (≈ 0.0892 µg/mL) | 47900 | –
29 | CCc1nc2ncc(C(F)(F)F)cn2c1C(=O)NCc1ccc(-c2cn3c(n2)C[C@H](C(F)(F)F)CC3)cc1 [Compound 192] | > 5 | 1.55e+06 | –
30 | CCc1nc2ncc(C(F)(F)F)cn2c1C(=O)NCc1ccc(-c2cn3c(n2)C[C@@H](C(F)(F)F)CC3)cc1 [Compound 193] | > 0.5 | > 501000 | –
31 | CCc1nc2ncc(N)cn2c1C(=O)NCc1ccc(-c2nc3n(n2)CCC(C(F)(F)F)C3)c(F)c1 (centres unmarked) [Compound 197] | 0.21 (≈ 0.106 µg/mL) | 69200 | –
32 | CCc1nc2ncc(N)cn2c1C(=O)NCc1ccc(-c2nc3n(n2)CCC(C(F)(F)F)C3)c(C)c1 (centres unmarked) [Compound 198] | 0.15 (≈ 0.0748 µg/mL) | 45700 | –
33 | CCc1nc2ncc(N)cn2c1C(=O)NCc1ccc(-c2nc3n(n2)CCCC3)cc1 [Compound 199] | > 0.5 | > 501000 | –
34 | CCc1nc2ncc(N)cn2c1C(=O)NCc1ccc(-c2nc3n(n2)CCC(C(C)(F)F)C3)cc1 (centres unmarked) [Compound 200] | 0.22 (≈ 0.106 µg/mL) | 61700 | –
